The test system of assay [1] is HEK293 cells. To be noted: cited from earlier work.
The subject of assay [2] is HL-60 cells. The assay can be described thus: Static cell adhesion to mouse E-selectin-Fc (mCD62E) coated surfaces. It is filed as cell-based, human. As to conditions: HL-60 pre-incubated 50 μM, 48 h; adhesion 60 min. As to the method: Effect of ManNAc analogues on cell adhesion to E-selectin and L-selectin coated surfaces: This assay was performed in 96-well polystyrene plates under sterile conditions. The plates were prepared freshly on the day of adhesion experiments. Wells were first coated with protein-G (200 ng in 50 μL PBS per well) for 1.0 h at room temperature (RT) followed by PBS washes (2×0.1 mL). Then either recombinant mouse E-selectin-Fc chimera or L-selectin-Fc chimera (20 ng in 50 μL PBS per well) was added to the wells and plate was left undisturbed for 1.0 h at RT. Wells were aspirated and washed with PBS (2×0.1 mL) followed by blocking with 1.0% (w/v) BSA in 50 μL PBS per well for 1.0 h at RT. After blocking, the wells were washed with PBS (3×0.1 mL).
HL-60 cells (3.0×10^5 cells per mL; 2.0 mL in six well plates) were incubated with 50 μM ManNAc analogues, harvested at 48 h, washed once with serum free RPMI medium (0.5 mL), and resuspended in serum free RPMI 1640 media containing 1.5 mM CaCl2) (4.0×10^5 cells/mL in 1.0 mL). The single cell suspension was added to each well (2.0×10^4 cells in 50 μL media per well) and allowed to adhere for 1.0 h at 37° C. in a CO2 incubator. […] Images were captured at 10× magnification using Olympus IX53 fluorescence microscope. […] The images were analyzed manually and the total number of adherent cells per well for each condition were plotted.

The text below walks through data of patent US20240002424A1, “HEXOSAMINE COMPOUNDS AND METHODS THEREOF” (National Institute of Immunology, priority 2021, published 2024).

Take `CC(=O)OC[C@H]1O[C@H](OC(C)=O)[C@@H](NC(=O)C2CC2)[C@@H](OC(C)=O)[C@@H]1OC(C)=O` [Compound 1a, 1,3,4,6-tetra-O-acetyl-2-cyclopropanoylamino-2-deoxy-α-D-mannopyranose]: in assay [1], the “increase of total sialic acid levels” value was “two folds” and the “share of sialic acid being modified N-cyclopropanoyl-D-neuraminic acid” value is “more than 50%”.

In the case of `CC(=O)OC[C@H]1OC(OC(C)=O)[C@@H](NC(=O)C2CCC2)[C@@H](OC(C)=O)[C@@H]1OC(C)=O` (stereo partly drawn) [Compound 1b, (3S,4R,5S,6R)-6-(acetoxymethyl)-3-(cyclobutanecarboxamido)tetrahydro-2H-pyran-2,4,5-triyl triacetate], the “increase in the numbers of adhered cells on mCD62E coated surface” value in assay [2] was “about 40%”.
